Measured values from paper PMC2847595 (Nuclear medicine and biology, 2010).
pKi: −log10 of the molar value.

Experiments:
[1] = Ex vivo radio-HPLC analysis of mouse plasma after radiotracer injection; format: in vivo; details: for plasma concentration: 30 min after radiotracer injection; for increase of plasma concentration by ketoconazole pretreatment: both wild-type and knockout mice, ketoconazole 50 mg/kg i.p.
[2] = Ex vivo radio-HPLC analysis of mouse whole brain after radiotracer injection; format: in vivo; details: for increase of brain concentration by ketoconazole pretreatment: ketoconazole 50 mg/kg i.p.; for brain concentration: 30 min after radiotracer injection
[3] = test system: P-glycoprotein (P-gp); details: cited from earlier work
[4] = test system: CYP3A4; details: cited from earlier work
[5] = test system: cDNA-expressed CYP3A4; details: in vitro; cited from earlier work
[6] = P-gp knockout mice, baseline (no ketoconazole)
[7] = P-gp knockout mice, ketoconazole 50 mg/kg i.p. pretreatment
[8] = wild-type mice, baseline (no ketoconazole)
[9] = wild-type mice, ketoconazole 50 mg/kg i.p. pretreatment
[10] = P-gp knockout mice, after [11C]loperamide
[11] = wild-type mice, after [11C]loperamide

| SMILES | plasma concentration [1, 6] [% SUV] | plasma concentration [1, 7] [% SUV] | increase of plasma concentration by ketoconazole pretreatment [1] | plasma concentration [1, 8] [% SUV] | plasma concentration [1, 9] [% SUV] | increase of brain concentration by ketoconazole pretreatment [2, 10] | brain concentration ([2]; P-gp knockout mice, baseline) [% SUV] | brain concentration [2, 7] [% SUV] | effect of ketoconazole pretreatment on brain concentration ([2]; either knockout or wild-type mice, after [11C]dLop) | effect of ketoconazole pretreatment on brain concentration [2, 11] | brain concentration ([2]; wild-type mice, baseline) [% SUV] | brain concentration [2, 9] [% SUV] | P-gp substrate [3] | pKi [4] | inhibition of the N-demethylation of loperamide [5] [%] |
| --- | --- | --- | --- | --- | --- | --- | --- | --- | --- | --- | --- | --- | --- | --- | --- |
| CN([11CH3])C(=O)C(CCN1CCC(O)(c2ccc(Cl)cc2)CC1)(c1ccccc1)c1ccccc1 [[^11C]dLop] [[N-methyl-^11C]N-desmethyl-loperamide] | 2.26 ± 0.54 | 3.4 ± 0.4 | about two-fold | 1.36 ± 0.18 | 3.3 ± 0.4 | two-fold | 37.1 ± 7.3 | 37.9 ± 6.7 | little effect | did not increase | 1.93 ± 0.52 | 2.2 ± 0.5 | avid substrate for P-gp |  |  |
| CN([11CH3])C(=O)C(CCN1CCC(O)(c2ccc(Cl)cc2)CC1)(c1ccccc1)c1ccccc1 [[^11C]loperamide] [[N-methyl-^11C]loperamide] | 7.37 ± 4.55 | 17.1± 9.0 | about two-fold | 10.3 ± 2.1 | 17.6 ± 5.9 | about two-fold | 20.4 ± 3.2 | 43.9 ± 14.0 |  | no effect | 2.86 ± 0.97 | 2.9± 0.7 |  |  |  |
| CC(=O)N1CCN(c2ccc(OCC3COC(Cn4ccnc4)(c4ccc(Cl)cc4Cl)O3)cc2)CC1 (stereo not drawn) [ketoconazole] |  |  |  |  |  |  |  |  |  |  |  |  |  | […] | 90 |
| CN(C)C(=O)C(CCN1CCC(O)(c2ccc(Cl)cc2)CC1)(c1ccccc1)c1ccccc1 [loperamide, reference compound] |  |  |  |  |  |  |  |  |  |  |  |  | avid substrate for P-gp |  |  |
